Consider three compounds from US10301354B2, “Antibacterial and fungicidal peptide in which lysine and tryptophan residues are repeated, and use thereof” (priority 2011, dated 2019).

≈ marks a conversion by molar mass, not a printed value. Like-named read-outs stand apart in the source and are kept apart here. Where no end group is shown, it is not given here.

For one experiment, the system named is C. albicans CCARM 14001. As to the kind of experiment: MIC in antibiotic-tolerant fungi. The settings on record: Candida albicans, CCARM14001; RMPI 1640. Type of experiment: cell-based. How it is done:
(§1) To measure the fungicidal activity of the peptide prepared in Example 1, the present inventors measured MIC, the minimal concentration that can keep the strain without being divided. For the measurement of fungicidal activity, pathogenic fungi selected from the group consisting of Candida albicans, C. catenulate, C. intermidia, C. rugosa, C. glabrata and C. melibiosica were used. After cultured in optimal media, the strains were diluted at the density of 2×10^5 cells/ml, which were then inoculated on microtitrate plates. The peptide synthesized in Example 1 and the positive control peptide (Melittin) were 2-fold diluted in solution 1 (10 mM sodium phosphate buffer, pH 7.2) and solution 2 (phosphate buffered saline) from 128 μM/well, which were added in the plate, followed by culture at 37° C. for 18˜24 hours. OD620 was measured with a microtitrate plate reader to determine MIC of each strain.
(§2) To measure the fungicidal activity of the peptide of the present invention in antibiotic-tolerant fungi, MIC of the peptide was measured by the same manner as described in Example <2-2> using RMPI 1640 and antibiotic-tolerant Candida albicans (C. albicans CCARM 14001, 14007, 14020).

Another experiment has as its system C. albicans CCARM 14020. As to the kind of experiment: MIC in antibiotic-tolerant fungi. To be noted: Candida albicans, CCARM14020. Type of experiment: cell-based. The method, then: as §1, §2
Another experiment deals with C. albicans CCARM 14007. Kind of experiment: MIC in antibiotic-tolerant fungi. Type of experiment: cell-based. The settings on record: Candida albicans, CCARM14007; RMPI 1640. How it is done:
as §1, §2

In a further experiment the test system is S. aureus CCARM 3126. Kind of experiment: MIC in antibiotic-tolerant strains. Type of experiment: cell-based, Staphylococcus aureus. The text has this: (§3) To measure the antibacterial activity of the peptide prepared in Example 1, the present inventors measured MIC, the minimal concentration that can keep the strain without being divided. For the measurement of antibacterial activity, Gram-positive bacteria selected from the group consisting of Bacillus subtilis, Staphylococcus aureus and Listeria monocytogenes, Gram-negative bacteria selected from the group consisting of Escherichia coli, Psedomonas aeruginosa and Salmonella typhimurium, and antibiotic-tolerant strains selected from the group consisting of E. coli (E. coli CCARM 1229, 1238), Salmonella (S. typhimurium CCARM 8007, 8009, 8013) and Staphylococcus (S. aureus CCARM 3089, 3090, 3108, 3114, 3126) were used. After cultured in optimal media, the strains were diluted at the density of 2×10^5 cells/ml, which were then inoculated on microtitrate plates. The peptide synthesized in Example 1 and the positive control peptide (Melittin) were 2-fold diluted in sodium phosphate buffer and phosphate buffered saline (PBS) from 200 μM/well, which were added in the plate, followed by culture at 37° C. for 18˜24 hours. OD620 was measured with a microtitrate plate reader to determine MIC of each strain. The results are presented in Table 1 (the number in bracket indicates the one obtained from PBS).

In the next experiment the test system is S. aureus CCARM 3090. Type of experiment: cell-based, Staphylococcus aureus.
Excerpt: as §3

Another experiment deals with S. aureus CCARM 3108. Type of experiment: cell-based, Staphylococcus aureus.
Excerpt: as §3

For the next experiment, the system named is S. aureus CCARM 3114. Type of experiment: cell-based, Staphylococcus aureus.
Excerpt: as §3

In a further experiment the test system is S. aureus CCARM 3089. Type of experiment: cell-based, Staphylococcus aureus.
Excerpt: as §3

A further experiment relates to E. coli CCARM 1238. Type of experiment: cell-based, Escherichia coli.
Excerpt: as §3

The test system of experiment [1] is S. typhimurium CCARM 8007. Type of experiment: cell-based, Salmonella typhimurium.
Excerpt: as §3

Experiment [2] relates to S. typhimurium CCARM 8009. Type of experiment: cell-based, Salmonella typhimurium.
Excerpt: as §3

Experiment [3] has as its system S. typhimurium CCARM 8013. Type of experiment: cell-based, Salmonella typhimurium.
Excerpt: as §3

A further experiment deals with L. monocytogenes. Type of experiment: cell-based, Listeria monocytogenes.
Excerpt: as §3

Regarding `OC(Cn1cncn1)(Cn1cncn1)c1ccc(F)cc1F` [Fluconazole], the MIC against C. albicans CCARM 14001, with C. albicans CCARM 14020 and in the experiment with C. albicans CCARM 14007 was over 128 µM in each case.
As for KWKWKWKW-NH2 [SEQ. ID. NO: 3], the minimal inhibitory concentration (MIC) against S. aureus CCARM 3126 (sodium phosphate buffer) was 12.5 µM. In other words, the double-digit micromolar range.
`CC[C@H](C)[C@H](NC(=O)CN)C(=O)NCC(=O)N[C@@H](C)C(=O)N[C@H](C(=O)N[C@@H](CC(C)C)C(=O)N[C@@H](CCCCN)C(=O)N[C@H](C(=O)N[C@@H](CC(C)C)C(=O)N[C@H](C(=O)N[C@H](C(=O)NCC(=O)N[C@@H](CC(C)C)C(=O)N1CCC[C@H]1C(=O)N[C@@H](C)C(=O)N[C@@H](CC(C)C)C(=O)N[C@H](C(=O)N[C@@H](CO)C(=O)N[C@@H](Cc1c[nH]c2ccccc12)C(=O)N[C@H](C(=O)N[C@@H](CCCCN)C(=O)N[C@@H](CCCNC(=N)N)C(=O)N[C@@H](CCCCN)C(=O)N[C@@H](CCCNC(=N)N)C(=O)N[C@@H](CCC(N)=O)C(=O)N[C@@H](CCC(N)=O)C(N)=O)[C@@H](C)CC)[C@@H](C)CC)[C@@H](C)O)[C@@H](C)O)C(C)C)C(C)C` [Melittin]: the MIC entry is “(1.56) μM” against S. aureus CCARM 3126 (PBS (number in bracket)); 1.56 µM (≈ 4.44 µg/mL) against S. aureus CCARM 3126 (sodium phosphate buffer); “(3.12) μM” in the experiment with S. aureus CCARM 3090 (PBS (number in bracket)); 3.12 µM (≈ 8.88 µg/mL) in the experiment with S. aureus CCARM 3090 (sodium phosphate buffer); “(1.56) μM” against S. aureus CCARM 3108 (PBS (number in bracket)); 1.56 µM (≈ 4.44 µg/mL) against S. aureus CCARM 3108 (sodium phosphate buffer). Also, the MIC result in the experiment with S. aureus CCARM 3114 (PBS (number in bracket)) was “(3.12) μM”; against S. aureus CCARM 3114 (sodium phosphate buffer), 3.12 µM (≈ 8.88 µg/mL); in the experiment on S. aureus CCARM 3089 (PBS (number in bracket)), “(1.56) μM”; in the experiment with S. aureus CCARM 3089 (sodium phosphate buffer), 1.56 µM (≈ 4.44 µg/mL); against E. coli CCARM 1238 (PBS (number in bracket)) it was “(1.56) μM”; against E. coli CCARM 1238 (sodium phosphate buffer) it was 1.56 µM (≈ 4.44 µg/mL). In addition, the MIC result in [1] (PBS (number in bracket)) is “(12.5) μM”; in [1] (sodium phosphate buffer), 6.25 µM (≈ 17.8 µg/mL); in experiment [2] (PBS (number in bracket)), “(12.5) μM”; in experiment [2] (sodium phosphate buffer), 6.25 µM (≈ 17.8 µg/mL); in [3] (PBS (number in bracket)), “(6.25) μM”; in [3] (sodium phosphate buffer) it was 3.12 µM (≈ 8.88 µg/mL). The values for the MIC entry against L. monocytogenes (PBS (number in bracket)) and against L. monocytogenes (sodium phosphate buffer) were “(1.56) μM” and 1.56 µM (≈ 4.44 µg/mL), respectively.
